Results reported in ChEMBL document CHEMBL1201862, “PubChem BioAssay data set” (2004).
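Exposure lasted 48 hours, with cells grown in 96-well plates and compounds tested at five concentrations. GI50 marks 50% less growth.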 The source made the active and inactive calls. Cut-off read from the data, not from the text of the source: active = GI50 up to about 1.1 µM and inactive = higher.

Experiments:
Assay in all cases: NCI tumour cell line growth inhibition, 48 h
KM12 = system: KM12
UACC-62 = system: UACC-62
IGROV-1 = system: IGROV-1
HT-29 = system: HT-29
786-0 = system: 786-0
TK-10 = system: TK-10
RPMI-8226 = system: RPMI-8226
SN12C = system: SN12C
U-251 = system: U-251
UACC-257 = system: UACC-257
SK-MEL-5 = system: SK-MEL-5
SK-MEL-2 = system: SK-MEL-2
UO-31 = system: UO-31
OVCAR-3 = system: OVCAR-3
OVCAR-5 = system: OVCAR-5
SF-539 = system: SF-539

Measured: GI50

COC/C=C\COC
inactive: KM12 > 100 µM | UACC-62 > 100 µM | IGROV-1 > 100 µM | HT-29 > 100 µM | 786-0 > 100 µM | TK-10 > 100 µM | RPMI-8226 > 100 µM | SN12C > 100 µM | U-251 > 100 µM | UACC-257 > 100 µM | SK-MEL-5 > 100 µM | SK-MEL-2 > 100 µM | UO-31 > 100 µM | OVCAR-3 > 100 µM | OVCAR-5 > 100 µM

O=C(Nc1ccccc1-c1nn(CO)c(=S)n(CO)c1=O)C(F)(F)F
inactive: KM12 > 100 µM | UACC-62 > 100 µM | IGROV-1 > 100 µM | HT-29 > 100 µM | 786-0 > 100 µM | TK-10 > 100 µM | SF-539 > 100 µM | SN12C > 100 µM | U-251 > 100 µM | SK-MEL-5 31.8 µM | SK-MEL-2 > 100 µM | UO-31 > 100 µM | OVCAR-3 > 100 µM | OVCAR-5 > 100 µM

O=C1OC(c2ccccc2)=N/C1=C/C=C/c1ccco1
inactive: KM12 > 100 µM | UACC-62 > 100 µM | IGROV-1 > 100 µM | HT-29 > 100 µM | 786-0 > 100 µM | TK-10 > 100 µM | SF-539 > 100 µM | SN12C > 100 µM | U-251 > 100 µM | SK-MEL-5 > 100 µM | SK-MEL-2 > 100 µM | UO-31 > 100 µM | OVCAR-3 > 100 µM | OVCAR-5 > 100 µM

CCCCCCCCCc1cc(=O)c2ccc(O)cc2o1
inactive: KM12 46.9 µM | UACC-62 > 100 µM | IGROV-1 41.2 µM | HT-29 > 100 µM | 786-0 39.8 µM | TK-10 30 µM | RPMI-8226 17.9 µM | SF-539 44.4 µM | SN12C > 100 µM | U-251 33.8 µM | UACC-257 65.3 µM | SK-MEL-5 43.5 µM | SK-MEL-2 10.3 µM | UO-31 8.85 µM | OVCAR-3 9.38 µM | OVCAR-5 > 100 µM

O=C1c2c(nc3ccccc3c2-c2ccccc2)CN1Nc1ccccc1
inactive: KM12 > 100 µM | UACC-62 > 100 µM | IGROV-1 > 100 µM | HT-29 > 100 µM | 786-0 > 100 µM | TK-10 > 100 µM | RPMI-8226 > 100 µM | SN12C > 100 µM | UACC-257 > 100 µM | SK-MEL-5 > 100 µM | SK-MEL-2 > 100 µM | UO-31 > 100 µM | OVCAR-3 > 100 µM | OVCAR-5 > 100 µM
